Columns and labels:
[1] = target: human BACE1 (Homo sapiens, UniProt P56817); experiment: BACE1 fluorescent kinetic assay (cleavage of peptide substrate WABC-6); type: biochemical; conditions: 5 μM inhibitor; 10 nM enzyme, 25 μM substrate, pH 4.5, room temperature; read-out: BACE-1 % Inhibition at 5 μM
Method: Evaluation of BACE1 Binding Affinity of Test Compounds
Fluorescent Kinetic Assays
Final Assay Conditions: 10 nM human BACE1 (or 10 nM Murine BACE1, 1.5 nM human BACE2), 25 μM substrate (WABC-6, MW 1549.6, from AnaSpec), Buffer: 50 mM Na-Acetate, pH 4.5, 0.05% CHAPS, 25% PBS, room temperature. Na-Acetate was from Aldrich, Cat.# 24, 124-5, CHAPS was from Research Organics, Cat. # 1304C 1×, PBS was from Mediatech (Cellgro), Cat# 21-031-CV, peptide substrate AbzSEVNLDAEFRDpa was from AnaSpec, Peptide Name: WABC-6
Determination of stock substrate (AbzSEVNLDAEFRDpa) concentration: ˜25 mM stock solution is made in DMSO using the peptide weight and MW, and diluted to ˜25 μM (1:1000) in 1×PBS. Concentration is determined by absorbance at 354 nm using an extinction coefficient ε of 18172 M^−1cm^−1, the concentration of stock substrate is corrected, and the substrate stock stored in small aliquots in −80° C. [Substrate Stock]=ABS^354 nm*10^6/18172 (in […]) The extinction coefficient ε^354 nm was adapted from TACE peptide substrate, which had the same quencher-fluorophore pair. Determination of Stock Enzyme Concentration: the stock concentration of each enzyme is determined by absorbance at 280 nm using an ε of 64150 M^−1cm^−1 for hBACE1 and MuBACE1, 62870 M^−1cm^−1 for hBACE2 in 6 M Guanidinium Hydrochloride (from Research Organics, Cat. # 5134G-2), pH ˜6. The extinction coefficient ε^280 nm for each enzyme was calculated based on known amino acid composition and published extinction coefficients for Trp ([…]) and Tyr ([…]) residues (Anal. Biochem. 182, 319-326). Dilution and mixing steps: total reaction volume: 100 μL
2× inhibitor dilutions in buffer A (66.7 mM Na-Acetate, pH 4.5, 0.0667% CHAPS) were prepared,
4× enzyme dilution in buffer A (66.7 mM Na-Acetate, pH 4.5, 0.0667% CHAPS) were prepared,
100 μM substrate dilution in 1×PBS was prepared, and
50 μL 2× Inhibitor, 25 μL 100 μM substrate are added to each well of 96-well plate (from DYNEX Technologies, VWR #: 11311-046), immediately followed by 25 μL 4× enzyme (added to the inhibitor and substrate mix), and the fluorescence readings are initiated.
Fluorescence Readings: Readings at λex 320 nm and λem 420 nm are taken every 40 sec for 30 min at room temperature and the linear slope for substrate cleavage rate (vi) determined.
Calculation of % Inhibition: % Inhibition=100*(1−vi/v0) vi: substrate cleavage rate in the presence of inhibitor v0: substrate cleavage rate in the absence of inhibitor IC50 Determination: % Inhibition=((B*IC50^n)+(100*I0^n))/(IC50^n+I0^n) (Model # 39 from LSW Tool Bar in Excel where B is the % inhibition from the enzyme control, which should be close to 0.) % Inhibition is plotted vs. Inhibitor Concentration (I0) and the data fit to the above equation to obtain IC50 value and Hill number (n) for each compound. Testing at least 10 different inhibitor concentrations is preferred.

Sequence of human BACE1 (P56817 46-501): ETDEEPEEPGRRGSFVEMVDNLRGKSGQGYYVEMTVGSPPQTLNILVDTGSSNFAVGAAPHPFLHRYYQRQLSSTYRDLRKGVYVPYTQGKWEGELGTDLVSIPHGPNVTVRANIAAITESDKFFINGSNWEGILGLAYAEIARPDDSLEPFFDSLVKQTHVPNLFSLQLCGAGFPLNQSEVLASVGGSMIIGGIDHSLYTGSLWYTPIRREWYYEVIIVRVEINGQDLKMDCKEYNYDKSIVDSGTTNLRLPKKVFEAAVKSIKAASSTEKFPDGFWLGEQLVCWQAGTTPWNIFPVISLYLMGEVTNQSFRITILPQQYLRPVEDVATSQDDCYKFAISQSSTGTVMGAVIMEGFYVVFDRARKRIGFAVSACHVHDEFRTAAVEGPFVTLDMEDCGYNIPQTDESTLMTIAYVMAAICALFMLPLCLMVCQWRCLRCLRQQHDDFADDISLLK

| inhibition at 5 µM [1] | melting point | SMILES |
| --- | --- | --- |
| 31.6% | 64 to 66 °C | Nc1cccc(Cn2c(-c3ccccc3Cl)cc3ccc(OCc4ccccc4)cc32)n1 [Example 9, 6-{[6-(benzyloxy)-2-(2-chlorophenyl)-1H-indol-1-yl]methyl}pyridin-2-amine] |
| 58% | 65 to 67 °C | N#Cc1cccc(COc2ccc3cc(-c4ccccc4Cl)n(Cc4cccc(N)n4)c3c2)c1 [Example 10, 3-({[1-[(6-aminopyridin-2-yl)methyl]-2-(2-chlorophenyl)-1H-indol-6-yl]oxy}methyl)benzonitrile] |
| 49.5% | 60 to 64 °C | Nc1cccc(Cn2c(-c3ccccc3Cl)cc3ccc(OCc4cccc(F)c4)cc32)n1 [Example 11, 6-({2-(2-chlorophenyl)-6-[(3-fluorobenzyl)oxy]-1H-indol-1-yl}methyl)pyridin-2-amine] |
| 33.2% | 65 to 68 °C | Nc1cccc(Cn2c(-c3ccccc3Cl)cc3ccc(OCc4cc(F)ccc4F)cc32)n1 [Example 12, 6-({2-(2-chlorophenyl)-6-[(2,5-difluorobenzyl)oxy]-1H-indol-1-yl}methyl)pyridin-2-amine] |
| 13.8% | 60 to 62 °C | Nc1cccc(Cn2c(-c3ccccc3Cl)cc3ccc(OCc4cccc(C(F)(F)F)c4)cc32)n1 [Example 13, 6-[(2-(2-chlorophenyl)-6-{[3-(trifluoromethyl)benzyl]oxy}-1H-indol-1-yl)methyl]pyridin-2-amine] |
| 36.3% | 67 to 69 °C | COc1cccc(COc2ccc3cc(-c4ccccc4Cl)n(Cc4cccc(N)n4)c3c2)c1 [Example 14, 6-({2-(2-chlorophenyl)-6-[(3-methoxybenzyl)oxy]-1H-indol-1-yl}methyl)pyridin-2-amine] |
| 38.6% | 128 to 130 °C | CCCOc1ccc2cc(-c3ccccc3Cl)n(Cc3cccc(N)n3)c2c1 [Example 15, 6-{[2-(2-chlorophenyl)-6-propoxy-1H-indol-1-yl]methyl}pyridin-2-amine] |
| 30.1% | 174 to 176 °C | COc1ccc2cc(-c3ccccc3Cl)n(Cc3cccc(N)n3)c2c1 [Example 16, 6-{[2-(2-chlorophenyl)-6-methoxy-1H-indol-1-yl]methyl}pyridin-2-amine] |
| 39.8% | 115 to 117 °C | Nc1cccc(Cn2c(-c3ccccc3Cl)cc3ccc(Oc4cncnc4)cc32)n1 [Example 17, 6-{[2-(2-chlorophenyl)-6-(pyrimidin-5-yloxy)-1H-indol-1-yl]methyl}pyridin-2-amine] |
| 31.7% | 189 to 191 °C | Nc1cccc(Cn2c(-c3ccccc3Cl)cc3ccc(Br)cc32)n1 [Example 19, 6-{[6-Bromo-2-(2-chlorophenyl)-1H-indol-1-yl]methyl}pyridin-2-amine] |
| 67.5% |  | Nc1cccc(Cn2c(-c3ccccc3Cl)cc3ccc(C#CCCO)cc32)n1 [Example 20, 4-{1-[(6-Aminopyridin-2-yl)methyl]-2-(2-chlorophenyl)-1H-indol-6-yl}but-3-yn-1-ol] |
| 56.6% |  | Nc1cccc(Cn2c(-c3ccccc3Cl)cc3ccc(C#CCCF)cc32)n1 [Example 21, 6-{[6-(4-fluorobutyn-1-yl)-2-(2-chlorophenyl)-1H-indol-1-yl]methyl}pyridin-2-amine] |
| 71.2% |  | Nc1cccc(Cn2c(-c3ccccc3Cl)cc3ccc(C#CCCCO)cc32)n1 [Example 22, 5-{1-[(6-Aminopyridin-2-yl)methyl]-2-(2-chlorophenyl)-1H-indol-6-yl}pent-4-yn-1-ol] |
| 81.1% |  | Nc1cccc(Cn2c(-c3ccccc3Cl)cc3ccc(C#CCCCCO)cc32)n1 [Example 23, 6-{1-[(6-Aminopyridin-2-yl)methyl]-2-(2-chlorophenyl)-1H-indol-6-yl}hex-5-yn-1-ol] |
| 71.8% |  | Nc1cccc(Cn2c(-c3ccccc3Cl)cc3ccc(CCCCO)cc32)n1 [Example 24, 4-[1-(6-Aminopyridin-2-ylmethyl)-2-(2-chlorophenyl)-1H-indol-6-yl]butan-1-ol] |
| 77.3% |  | Nc1cccc(Cn2c(-c3ccccc3Cl)cc3ccc(CCCCCO)cc32)n1 [Example 25, 5-[1-(6-Aminopyridin-2-ylmethyl)-2-(2-chlorophenyl)-1H-indol-6-yl]pentan-1-ol] |
| 107% |  | Nc1cccc(Cn2c(-c3ccccc3Cl)cc3ccc(CCCCCCO)cc32)n1 [Example 26, 6-[1-(6-Aminopyridin-2-ylmethyl)-2-(2-chlorophenyl)-1H-indol-6-yl]hexan-1-ol] |
| 51% |  | COCCC#Cc1ccc2cc(-c3ccccc3Cl)n(Cc3cccc(N)n3)c2c1 [Example 27, 6-{[2-(2-Chlorophenyl)-6-(4-methoxybut-1-yn-1-yl)-1H-indol-1-yl]methyl}pyridin-2-amine] |
| 53% |  | COCCCC#Cc1ccc2cc(-c3ccccc3Cl)n(Cc3cccc(N)n3)c2c1 [Example 28, 6-{[2-(2-Chlorophenyl)-6-(5-methoxypent-1-yn-1-yl)-1H-indol-1-yl]methyl}pyridin-2-amine] |
| 24.6% | 45 to 47 °C | Nc1cccc(Cn2c(-c3ccccc3)cc3ccccc32)n1 [Example 30] |
| 64.6% |  | Nc1cccc(Cn2c(-c3ccccc3Cl)cc3ccc(C#CCCCF)cc32)n1 [Example 31, 6-{[2-(2-chlorophenyl)-6-(5-fluoropent-1-yn-1-yl)-1H-indol-1-yl]methyl}pyridin-2-amine] |
| 53.4% |  | Nc1cccc(Cn2c(-c3ccccc3Cl)cc3ccc(C#CCCCCF)cc32)n1 [Example 32, 6-{[2-(2-chlorophenyl)-6-(6-fluorohex-1-yn-1-yl)-1H-indol-1-yl]methyl}pyridin-2-amine] |

| SMILES | inhibition at 5 µM [1] | melting point |
| --- | --- | --- |
| N#CCCCOc1ccc2cc(-c3ccccc3Cl)n(Cc3cccc(N)n3)c2c1 [Example 8, 4-{[1-[(6-aminopyridin-2-yl)methyl]-2-(2-chlorophenyl)-1H-indol-6-yl]oxy}butanenitrile] | 79% |  |
